Molecular target: T1, human GlyT1b (Homo sapiens, UniProt P48067)
T1 construct: expressed in transfected cells
T1 sequence (P48067 1-652 isoform P48067-3): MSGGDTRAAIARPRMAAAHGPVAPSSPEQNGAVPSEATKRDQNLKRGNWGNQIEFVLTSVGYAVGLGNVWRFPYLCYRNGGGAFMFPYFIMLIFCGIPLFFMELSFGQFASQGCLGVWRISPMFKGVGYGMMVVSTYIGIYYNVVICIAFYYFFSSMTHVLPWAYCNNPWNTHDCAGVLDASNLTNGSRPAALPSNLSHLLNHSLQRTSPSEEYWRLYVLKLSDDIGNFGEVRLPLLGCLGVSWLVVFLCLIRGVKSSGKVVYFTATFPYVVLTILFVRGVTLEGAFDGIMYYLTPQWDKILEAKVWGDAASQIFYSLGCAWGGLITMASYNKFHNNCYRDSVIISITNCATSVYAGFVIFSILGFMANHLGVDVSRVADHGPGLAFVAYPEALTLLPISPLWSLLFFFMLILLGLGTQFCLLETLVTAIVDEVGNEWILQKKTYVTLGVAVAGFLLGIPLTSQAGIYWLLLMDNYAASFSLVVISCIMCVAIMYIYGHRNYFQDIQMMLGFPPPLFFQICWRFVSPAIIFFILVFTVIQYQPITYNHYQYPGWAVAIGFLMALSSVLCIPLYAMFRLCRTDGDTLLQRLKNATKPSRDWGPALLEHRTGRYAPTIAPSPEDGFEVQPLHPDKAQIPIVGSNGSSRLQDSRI
Assay: [3H] Glycine Uptake Assay (SPA) in recombinant hGlyT1b-CHO cells
Format: cell-based
Description: A. [3H] Glycine Uptake Assay
Preparation of recombinant human GlyT1b-CHO cells (hGlyT1b-CHO). The human GlyT1b CDS (GC002087, NM_006934) was cloned downstream of a CMV promoter in a bicistronic expression vector containing a hygromycin B resistance gene. CHO-K1 cells (ATCC) were transfected with the recombinant vector containing GlyT1b using Lipofectamine 2000 (Invitrogen) and cultured in Ham's/F12 media supplemented with 10% fetal bovine serum, 2 mM L-glutamine at 37° C., 5% CO2, 90% humidity. Twenty-four hours after transfection, cells were diluted and switched to media containing 0.5 mg/ml hygromycin B. Antibiotic resistant cells were obtained after 21 days of culture in the presence of hygromycin B. Clonal stable cell lines were isolated by FACS single cell deposition into 96-well plates.
Cells used were Recombinant hGlyT1b/CHO. These cells were cultured in cell culture medium (Ham's/F12 (Modified) (Mediatech, 10-080-CM), containing 10% FBS, 2 mM L-glutamine (Invitrogen 25030-149) and 0.5 mg/mL hygromycin B (Invitrogen, 10687-010)) in 175 cm^2 flasks until near confluence before use in the assay.
Cell medium in a cell culture flask containing near confluent cells was removed and 5 mL of cell stripper was added to submerge all cells on the surface of the culture flask. Cell stripper was removed immediately and the flask incubated in a 37° C. incubator for ˜5 min. Cells were shaken loose and suspended in 5 mL of PBS. After splitting cells to initiate a new flask(s), the cells remaining were collected by centrifugation, counted, and resuspended in assay buffer to a density of ˜2 million/mL. The cell suspension was kept at room temperature before use. The assays buffer was 10 mM HEPES, pH 7.4, containing 150 mM NaCl, 5 mM KCl, 1.5 mM CaCl2, 1.5 mM MgCl2, 0.45 mg/mL L-alanine (added fresh), and 1.8 mg/mL D-glucose (added fresh).
WGA PTV beads were suspended in assay buffer (2 mg/ml) containing 60 nM [^3H]Glycine (PerkinElmer (NET-004, [2-^3H]Glycine, 53.3 Ci/mmol, 1 mCi/mL)) and 20 μM unlabeled glycine and the suspension was kept at room temperature before assay.
To the wells of an OptiPlate, 2 μl DMSO containing a test compound was spotted. This was followed by addition of 98 μl of cell suspension (˜1 million/ml final). After incubating cells with compound for ˜15 min, 100 μl of the SPA (200 μg/well final) and isotope mixture (30 nM isotope with 10 μM cold glycine, final) was added to initiate the glycine uptake. At 2 h, the plate was read on a TopCount to quantify SPA counts.

Row | SMILES | IC50 (Table 2, unit from table title) | IC50 (Table 1)
1 | Cc1cccc(C)c1C(=O)N[C@H](c1ccccc1)C12CCC(CC1)N2CCN1CCOC1=O [Example 70] | 0.003 µM | –
2 | Cc1cccc(C)c1C(=O)NC(c1ccc(N2CCOCC2)cc1)C12CCC(CC1)N2C (stereo not drawn) [Example 97] | 0.073 µM | –
3 | COCCN1C2CCC1([C@H](NC(=O)c1c(C)cccc1C)c1ccccc1)CC2 [Example 24] | 0.022 µM | –
4 | Cc1ccc(C(NC(=O)c2c(C)cccc2C)C23CCC(CC2)N3C)o1 (stereo not drawn) [Example 9, 2,6-dimethyl-N-((7-methyl-7-azabicyclo[2.2.1]heptan-1-yl)(5-methylfuran-2-yl)methyl)benzamide] | – | 0.098 µM
5 | Cc1ccccc1C(=O)NC(c1ccccc1)C12CCC(CC1)N2C (single isomer, unassigned) [Example 59] | 0.038 µM | –
6 | Cc1cccc(C)c1C(=O)N[C@H](c1ccccc1)C12CCC(CC1)N2C[C@H]1CCCN1 [Example 80] | 0.313 µM | –
7 | CN1C2CCC1([C@H](NC(=O)c1ccc(Cl)cc1Cl)c1ccccc1)CC2 (single isomer, unassigned) [Example 14, (R*)-2,4-dichloro-N((7-methy1-7-azabicyclo[2.2.1]heptan-1-yl)(phenyl)methyl)benzamide] | – | 0.305 µM
8 | Cc1cccc(C)c1C(=O)N[C@H](c1ccccc1)C12CCC(CC1)N2Cc1ccccn1 [Example 49] | 0.155 µM | –
9 | Cc1cc(F)cc(C)c1C(=O)NC(c1ccccc1)C12CCC(CC1)N2C (stereo not drawn) [Example 82] | 0.004 µM | –
10 | Cc1cccc(C)c1C(=O)N[C@H](c1ccccc1)C12CCC(CC1)N2CCN1CCCC1 [Example 69] | 0.051 µM | –
11 | CCN1C2CCC1(C(NC(=O)c1cccnc1SC)c1ccccc1)CC2 (stereo not drawn) [Example 51] | 0.107 µM | –
12 | Cc1cccc(C)c1C(=O)NC(c1cccc(F)c1)C12CCC(CC1)N2 (single isomer, unassigned) [Example 76] | 0.297 µM | –
13 | Cc1c(F)cccc1C(=O)NC(c1ccccc1)C12CCC(CC1)N2C (single isomer, unassigned) [Example 63] | 0.076 µM | –
14 | Cc1cccc(C)c1C(=O)NC(c1ccc(C#N)cc1)C12CCC(CC1)N2C (stereo not drawn) [Example 93] | 0.226 µM | –
15 | Cc1cccc(C)c1C(=O)NC(c1ccncc1)C12CCC(CC1)N2C (stereo not drawn) [Example 37] | 0.006 µM | –
16 | Cc1cccc(C)c1C(=O)N[C@H](c1ccccc1)C12CCC(CC1)N2CCN [Example 40] | 0.013 µM | –
17 | Cc1ccc(C(NC(=O)c2c(C)cccc2C)C23CCC(CC2)N3C)cn1 (stereo not drawn) [Example 68] | 0.129 µM | –

Row | SMILES | IC50 (Table 2, unit from table title) | IC50 (Table 1)
18 | Cc1cccc(C)c1C(=O)NC(c1ccc(F)cc1)C12CCC(CC1)N2C (single isomer, unassigned) [Example 47] | 0.002 µM | –
19 | Cc1cccc(C)c1C(=O)N[C@H](c1cncnc1)C12CCC(CC1)N2C [Example 72] | 0.148 µM | –
20 | Cc1cccc(C)c1C(=O)N[C@H](c1ccccc1)C12CCC(CC1)N2Cc1ccccc1 [Example 25] | 0.174 µM | –
21 | Cc1cccc(C)c1C(=O)NC(c1cccnc1)C12CCC(CC1)N2C (single isomer, unassigned) [Example 74] | < 0.003 µM | –
22 | CCN1C2CCC1(C(NC(=O)c1ccnc(C(F)(F)F)c1F)c1ccccc1)CC2 (stereo not drawn) [Example 52] | 0.297 µM | –
23 | Cc1ccc(C(NC(=O)c2c(C)cccc2C)C23CCC(CC2)N3C)cn1 (single isomer, unassigned) [Example 77] | 0.071 µM | –
24 | Cc1cccc(C)c1C(=O)NC(c1cccc(C#N)c1)C12CCC(CC1)N2C (stereo not drawn) [Example 79] | 0.087 µM | –
25 | Cc1cccc(F)c1C(=O)NC(c1ccccc1)C12CCC(CC1)N2C (single isomer, unassigned) [Example 7, 2-fluoro-6-methyl-N-((7-methyl-7-azabicyclo[2.2.1]heptan-1-yl)(phenyl)methyl)benzamide] | – | 0.062 µM
26 | CC(C)N1C2CCC1(C(NC(=O)c1c(Cl)cncc1Cl)c1ccccc1)CC2 (single isomer, unassigned) [Example 54] | 0.1 µM | –
27 | COCCN1C2CCC1(C(NC(=O)c1c(C)cccc1C)c1ccncc1)CC2 (single isomer, unassigned) [Example 6, (R*)—N-((7-(2-methoxyethyl)-7-azabicyclo[2.2.1]heptan-1-yl)(pyridin-4-yl)methyl)-2,6-dimethylbenzamide] | – | 0.026 µM
28 | Cc1cccc(C)c1C(=O)NC(c1ccc(Br)cc1)C12CCC(CC1)N2C (stereo not drawn) [Example 90] | 0.004 µM | –
29 | Cc1ccc(C(NC(=O)c2c(C)cccc2C)C23CCC(CC2)N3C)o1 (single isomer, unassigned) [Example 87] | 0.014 µM | –
30 | CCCCN1C2CCC1([C@H](NC(=O)c1c(C)cccc1C)c1ccccc1)CC2 [Example 27] | 0.011 µM | –
31 | Cc1ccc(F)cc1C(=O)NC(c1ccccc1)C12CCC(CC1)N2C (single isomer, unassigned) [Example 64] | 0.125 µM | –
32 | COCCCN1C2CCC1([C@H](NC(=O)c1c(C)cccc1C)c1ccccc1)CC2 [Example 28] | 0.012 µM | –
33 | Cc1cccc(C)c1C(=O)NC(c1cccc(F)c1)C12CCC(CC1)N2C (single isomer, unassigned) [Example 46] | 0.002 µM | –

Reference: patent US20120094995A1, “2-AZA-BICYCLO[2.2.1]HEPTANE COMPOUNDS AND USES THEREOF” (ASTRAZENECA AB, priority 2009, published 2012)
